Test results as given in patent publication US9303033B2, “Pyrazolopyrimidines and related heterocycles as CK2 inhibitors” (SENHWA BIOSCIENCES, INC., priority 2009, dated 2016).
Where two headings read alike, the source gives them in different places.

Key:
[1] = biological target: CK2 ααββ (Homo sapiens (Human), UniProt P68400); assay: CK2 assay (cell-free, 33P-ATP, phosphocellulose filter plate); type: biochemical
[2] = biological target: recombinant human PIM2 (Homo sapiens (Human), UniProt Q9P1W9); assay: PIM-2 assay (33P-ATP filter binding); type: biochemical; settings: for PIM2: % inh […]: at […] compound
[3] = PIM2: IC50 (5 μM ATP), 5 μM ATP

Sequence of recombinant human PIM2 (Q9P1W9 whole entry): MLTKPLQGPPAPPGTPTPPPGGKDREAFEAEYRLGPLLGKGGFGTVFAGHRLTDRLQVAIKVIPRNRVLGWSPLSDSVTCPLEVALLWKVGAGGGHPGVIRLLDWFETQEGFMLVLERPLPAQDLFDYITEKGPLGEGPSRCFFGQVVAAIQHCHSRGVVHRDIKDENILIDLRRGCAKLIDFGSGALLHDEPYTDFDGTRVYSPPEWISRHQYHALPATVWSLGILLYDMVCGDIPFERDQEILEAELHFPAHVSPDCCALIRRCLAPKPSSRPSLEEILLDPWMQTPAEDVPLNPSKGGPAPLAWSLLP
Sequence of CK2 ααββ (P68400 whole entry): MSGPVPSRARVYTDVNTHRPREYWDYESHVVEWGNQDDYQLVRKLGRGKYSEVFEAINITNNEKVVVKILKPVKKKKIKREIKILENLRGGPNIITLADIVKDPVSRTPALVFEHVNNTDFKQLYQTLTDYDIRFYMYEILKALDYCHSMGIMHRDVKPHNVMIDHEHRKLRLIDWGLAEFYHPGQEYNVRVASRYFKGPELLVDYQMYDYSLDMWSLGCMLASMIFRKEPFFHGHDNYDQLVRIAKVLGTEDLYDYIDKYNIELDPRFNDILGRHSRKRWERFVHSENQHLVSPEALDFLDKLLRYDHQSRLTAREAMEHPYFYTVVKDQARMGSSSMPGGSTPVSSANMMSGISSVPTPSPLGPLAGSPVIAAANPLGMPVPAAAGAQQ
Sequence of CK2 ααββ (P67870 whole entry partner): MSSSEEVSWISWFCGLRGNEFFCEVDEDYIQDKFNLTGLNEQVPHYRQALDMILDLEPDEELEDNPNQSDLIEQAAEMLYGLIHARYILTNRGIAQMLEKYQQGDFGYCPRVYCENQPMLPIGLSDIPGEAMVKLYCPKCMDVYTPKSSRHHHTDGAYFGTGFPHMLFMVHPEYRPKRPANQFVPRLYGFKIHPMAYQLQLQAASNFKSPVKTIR

| IC50 [1] | IC50 [2, 3] | SMILES | further results |
| --- | --- | --- | --- |
| > 1000 nM |  | Cc1nn2c(NC3CC3)cc(Nc3ccc(-n4cccn4)cc3)nc2c1C=C1NC(=O)NC1=O [Example 275, 5-((5-(4-(1H-pyrazol-1-yl)phenylamino)-7-(cyclopropylamino)-2-methylpyrazolo[1,5-a]pyrimidin-3-yl)methylene)imidazolidine-2,4-dione] | inhibition at […] ([2]; read-out: PIM2: % inh […], at 2.5 μM compound): 43.4% |
| < 100 nM |  | Cc1cccc(Nc2cc(NCC3CC3)n3ncc(/C=C4\NC(=O)NC4=O)c3n2)c1 [Example A2] |  |
| < 100 nM |  | O=C1NC(=O)/C(=C/c2cnn3c(NCC4(CN5CCCC5)CC4)cc(Nc4cccc(Cl)c4)nc23)N1 [Example A7] |  |
| < 100 nM |  | O=C1NC(=O)/C(=C/c2cnn3c(NCC4CC4)cc(Nc4cccc(O)c4)nc23)N1 [Example B2] |  |
| < 100 nM | 538 nM | CN(C)C(=O)N[C@H]1CC[C@H](Nc2cc(NC3CC3)n3ncc(/C=C4\NC(=O)NC4=O)c3n2)CC1 [Example B3] |  |
| < 10 nM | 679 nM | COC(=O)N[C@H]1CC[C@H](Nc2cc(NC3CC3)n3ncc(/C=C4\NC(=O)NC4=O)c3n2)CC1 [Example C3] |  |
| < 10 nM |  | O=C1NC(=O)/C(=C/c2cnn3c(NCC4CC4)cc(Nc4ccncc4)nc23)N1 [Example E2] |  |
| < 10 nM | > 2500 nM | CS(=O)(=O)N[C@H]1CC[C@H](Nc2cc(NC3CC3)n3ncc(/C=C4\NC(=O)NC4=O)c3n2)CC1 [Example E3] |  |
| < 100 nM | > 2500 nM | O=C1NC(=O)/C(=C/c2cnn3c(NC4CC4)cc(-c4ccc(F)c(C(=O)NCCN5CCCC5)c4)nc23)N1 [Example E5] |  |
| < 1000 nM | 1330 nM | O=C1NC(=O)/C(=C/c2cnn3c(NCc4ccncc4)cc(Nc4cccc(Cl)c4)nc23)N1 [Example E6] |  |
| < 1000 nM | > 2500 nM | O=C1NC(=O)/C(=C/c2cnn3c(NC4CCC4)cc(Nc4cccc(Cl)c4)nc23)N1 [Example G6] |  |
| < 10 nM |  | O=C1NC(=O)/C(=C/c2cnn3c(NCC4CC4)cc(Nc4ccc(Cl)cn4)nc23)N1 [Example H2] |  |
| < 100 nM | 815 nM | COc1cccc(-c2cc(NC3CC3)n3ncc(/C=C4\SC(=O)NC4=O)c3n2)c1 [Example H5] |  |
| < 1000 nM | 421 nM | O=C1NC(=O)/C(=C/c2cnn3c(NCc4ccccn4)cc(Nc4cccc(Cl)c4)nc23)N1 [Example H6] |  |
| < 100 nM |  | O=C1NC(=O)/C(=C/c2cnn3c(NCC4CC4)cc(Nc4ccc(Cl)cc4)nc23)N1 [Example I2] |  |
| < 100 nM | > 2500 nM | O=C1NC(=O)/C(=C/c2cnn3c(NCC4CC4)cc(Nc4cc(F)cc(F)c4)nc23)N1 [Example J2] |  |
| < 2000 nM | 2190 nM | O=C1NC(=O)/C(=C/c2cnn3c(NCCN4CCOCC4)cc(Nc4cccc(Cl)c4)nc23)N1 [Example L6] |  |
| < 10 nM | 1970 nM | O=C1NC(=O)/C(=C/c2cnn3c(NC4CC4)cc(Nc4cc(F)cc(F)c4)nc23)N1 [Example N1] |  |
| < 10 nM | > 2500 nM | COc1cccc(Nc2cc(NC3CC3)n3ncc(/C=C4\NC(=O)NC4=O)c3n2)c1Cl [Example P1] |  |
| < 10 nM | > 2500 nM | O=C1NC(=O)/C(=C/c2cnn3c(NC4CC4)cc(Nc4cc(Cl)ccc4F)nc23)N1 [Example Q1] |  |
| < 100 nM | 2050 nM | CN1CCCN(c2cc(NC3CC3)n3ncc(/C=C4\SC(=O)NC4=O)c3n2)CC1 [Example Q3] |  |
| < 100 nM | > 2500 nM | CC(C)N1CCC(Nc2cc(Nc3cccc(Cl)c3)nc3c(/C=C4\NC(=O)NC4=O)cnn23)CC1 [Example Q5] |  |
| < 100 nM | 878 nM | N[C@H]1CC[C@H](Nc2cc(NC3CC3)n3ncc(/C=C4\NC(=O)NC4=O)c3n2)CC1 [Example R2] |  |
| < 10 nM | 2040 nM | O=C1NC(=O)/C(=C/c2cnn3c(NC4CC4)cc(Nc4ccc(F)c(Cl)c4)nc23)N1 [Example S1] |  |
| < 100 nM | > 2500 nM | CC(C)(C)CC(=O)N1CCC(Nc2cc(Nc3cccc(Cl)c3)nc3c(/C=C4\NC(=O)NC4=O)cnn23)CC1 [Example S5] |  |
| < 100 nM |  | CC(C)(C)OC(=O)N1CCC(CNc2cc(Nc3cccc(Cl)c3)nc3c(/C=C4\NC(=O)NC4=O)cnn23)CC1 [Example T6] |  |
| < 1000 nM |  | Cc1c(N2CCN(c3ncccc3C#N)CC2)nc2c(C=C3SC(=O)NC3=O)cnn2c1NC1CC1 [Example T46] | PIM2: % inh […] [2]: 50.998% |
| < 1000 nM | > 2500 nM | O=C1NC(=O)/C(=C/c2cnn3c(NC4CCN(Cc5ccccn5)CC4)cc(Nc4cccc(Cl)c4)nc23)N1 [Example V5] |  |
| < 1000 nM |  | CC(C)C(CNc1cc(Nc2cccc(Cl)c2)nc2c(/C=C3\NC(=O)NC3=O)cnn12)N(C)C (centres unmarked) [Example W6] |  |

More lines, now with the values behind:

| SMILES | IC50 [1] | IC50 [2, 3] | further results |
| --- | --- | --- | --- |
| CC(CNc1cc(Nc2cc(Cl)ccc2F)nc2c(C=C3NC(=O)NC3=O)cnn12)N1CCOCC1 (racemic) [Example 515] | < 10 nM |  |  |
| CC(Oc1nc(NC2CC2)n2ncc(C=C3NC(=O)NC3=O)c2n1)c1c(Cl)ccc(F)c1Cl (centres unmarked) [Compound L36] | < 10 nM |  | IC50 ([2]; read-out: PIM2: IC50): > 1000 nM |
| O=C1NC(=O)C(=Cc2cnn3c(NC4CC4)nc(OCc4ccccn4)nc23)N1 [Compound M36] | < 10 nM |  | IC50 ([2]; read-out: PIM2: IC50): > 1000 nM |
| O=C1NC(=O)/C(=C/c2cnn3c([S+]([O-])Cc4ccccc4)cc(-c4cccc(Cl)c4)nc23)N1 (centres unmarked) [Example A6] | < 100 nM | 209 nM |  |
| O=C1NC(=O)/C(=C/c2cnn3c(NC(=O)C4CCNCC4)cc(Nc4cccc(Cl)c4)nc23)N1 [Example B1, N-(5-(3-chlorophenylamino)-3-((2,5-dioxoimidazolidin-4-ylidene)methyl)pyrazolo[1,5-a]pyrimidin-7-yl)piperidine-4-carboxamide] | < 1000 nM | 2500 nM |  |
| O=C1NC(=O)/C(=C/c2cnn3c(NCC4CC4)cc(Nc4cccc(CN5CCOCC5)c4)nc23)N1 [Example C2] | < 100 nM |  |  |
| Cc1cc(-c2cc(NC3CC3)n3ncc(/C=C4\NC(=O)NC4=O)c3n2)cc(C)c1O [Example C5] | < 1000 nM | > 2500 nM |  |
| O=C1NC(=O)/C(=C/c2cnn3c(NCC4CC4)cc(Nc4ccc(F)c(Cl)c4)nc23)N1 [Example D2] | < 100 nM |  |  |
| CC(=O)NC1CCC(Nc2cc(NC3CC3)n3ncc(/C=C4\NC(=O)NC4=O)c3n2)CC1 (centres unmarked) [Example D3] | < 10 nM |  | IC50 ([2]; read-out: PIM2: IC50 (5 μM ATP), 5 μM ATP): 476 nM |
| O=C1NC(=O)/C(=C/c2cnn3c(NCC4CC4)cc(Nc4cccc(S(=O)(=O)N5CCCC5)c4)nc23)N1 [Example F2] | < 100 nM |  |  |
| CC(C)Nc1cc(Nc2cccc(Cl)c2)nc2c(/C=C3\NC(=O)NC3=O)cnn12 [Example F6] | < 100 nM | > 2500 nM |  |
| CNC(=O)c1cccc(Nc2cc(NCC3CC3)n3ncc(/C=C4\NC(=O)NC4=O)c3n2)c1 [Example G2] | < 10 nM |  |  |
| O=C1NC(=O)/C(=C/c2cnn3c(NC4CC4)cc(-c4ccnc(F)c4)nc23)S1 [Example I5] | < 1000 nM | 218 nM |  |
| CC(C)Oc1cccc(Nc2cc(NC3CC3)n3ncc(/C=C4\NC(=O)NC4=O)c3n2)c1 [Example M1] | < 10 nM | > 2500 nM |  |
| CN(C)CC(C)(C)CNc1cc(Nc2cccc(Cl)c2)nc2c(/C=C3\NC(=O)NC3=O)cnn12 [Example M6] | < 1000 nM | > 2500 nM |  |
| CC(C)(C)OC(=O)N1CCCC1CNc1cc(Nc2cccc(Cl)c2)nc2c(/C=C3\NC(=O)NC3=O)cnn12 (centres unmarked) [Example N6] | < 100 nM | > 2500 nM |  |
| O=C1NC(=O)/C(=C/c2cnn3c(NC4CC4)cc(Nc4ccccn4)nc23)N1 [Example O1] | < 10 nM | > 2500 nM |  |

| SMILES | IC50 [1] | IC50 [2, 3] | further results |
| --- | --- | --- | --- |
| CCN(CC)CCNc1cc(NC2CC2)n2ncc(/C=C3\SC(=O)NC3=O)c2n1 [Example O3] | < 100 nM | > 2500 nM |  |
| O=C1NC(=O)/C(=C/c2cnn3c(NC4CC4)cc(Nc4ccc(-n5cccn5)cc4)nc23)N1 [Example R1] | < 10 nM | > 2500 nM |  |
| O=C1NC(=O)/C(=C/c2cnn3c(NC4CC4)cc(N4CCN(c5ccccn5)CC4)nc23)S1 [Example R3] | < 1000 nM | 1820 nM |  |
| CC(C)CN1CCC(Nc2cc(Nc3cccc(Cl)c3)nc3c(/C=C4\NC(=O)NC4=O)cnn23)CC1 [Example R5] | < 100 nM | 2200 nM |  |
| O=C1NC(=O)/C(=C/c2cnn3c(NCC4(CO)CCCC4)cc(Nc4cccc(Cl)c4)nc23)N1 [Example R6] | < 1000 nM | 1120 nM |  |
| Cc1c(N2CCN(c3ncccc3C#N)CC2)nc2c(C=C3NC(=O)NC3=O)cnn2c1NC1CC1 [Example R46] | < 1000 nM |  | PIM2: % inh […] [2]: 68.545% |
| O=C1NC(=O)/C(=C/c2cnn3c(Nc4cc[nH]n4)cc(Nc4cccc(Cl)c4)nc23)N1 [Example S6] | < 100 nM |  |  |
| Cc1c(N2CCN(c3ccccn3)CC2)nc2c(C=C3SC(=O)NC3=O)cnn2c1NC1CC1 [Example S46] | < 1000 nM |  | PIM2: % inh […] [2]: −19.761% |
| COC(=O)N1CCC(Nc2cc(Nc3cccc(Cl)c3)nc3c(/C=C4\NC(=O)NC4=O)cnn23)CC1 [Example T5] | < 100 nM | > 2500 nM |  |
| CCOC(=O)c1cc(F)cc(Nc2cc(NCC3CC3)n3ncc(/C=C4\NC(=O)NC4=O)c3n2)c1 [Example U1] | < 100 nM | > 2500 nM |  |
| CC(O)CN1CCC(Nc2cc(Nc3cccc(Cl)c3)nc3c(/C=C4\NC(=O)NC4=O)cnn23)CC1 (centres unmarked) [Example U5] | < 1000 nM | > 2500 nM |  |
| CC(C)(CO)CNc1cc(Nc2cccc(Cl)c2)nc2c(/C=C3\NC(=O)NC3=O)cnn12 [Example V6] | < 100 nM |  |  |
| O=C1NC(=O)/C(=C/c2cnn3c(NC4CC4)cc(NC4CCNCC4)nc23)N1 [Example W2] | < 10 nM | 877 nM |  |
| CCOCC1(CNc2cc(Nc3cccc(Cl)c3)nc3c(/C=C4\NC(=O)NC4=O)cnn23)CC1 [Example X6] | < 1000 nM |  |  |
| CN1CCN(CC2(CNc3cc(Nc4cccc(Cl)c4)nc4c(/C=C5\NC(=O)NC5=O)cnn34)CC2)CC1 [Example Y6] | < 100 nM |  |  |
| NCc1cccc(Nc2cc(NCC3CC3)n3ncc(/C=C4\NC(=O)NC4=O)c3n2)c1 [Example Z1] | < 100 nM |  |  |
| O=C1NC(=O)/C(=C/c2cnn3c(NCC4(CN5CCOCC5)CC4)cc(Nc4cccc(Cl)c4)nc23)N1 [Example Z6] | < 100 nM |  |  |
